Laboratory results: patent US20240084258A1, “METHOD FOR PREPARING BROWN ADIPOCYTE” (KYOTO PREFECTURAL PUBLIC UNIVERSITY CORPORATION, priority 2015, published 2024)

Assays:
Format in all cases: cell-based
[1] = tested on: human dermal fibroblasts (HDFs); experiment: AdipoQ gene mRNA by real time RT-PCR (Example 6); details: induction medium + T3 + Rosiglitazone, D4476, SB431542, ALK5 Inhibitor II 2 μM, PD0325901 1 μM, day 14, FIG. 6
Method: This was seeded in a 24-well plate at a concentration of 1×10^4 cells/well (day 0), and culturing was started at 5% CO2/95% humid air, 37° C. The next day, the culture supernatant was removed by suction and, as described in the Figure, a normal medium, an adipocyte induction medium, or an adipocyte induction medium added with each low-molecular-weight compound and the like was added at 500 μL/well. […] The concentrations of the additives are as follows: • T3: 1 nM • Rosiglitazone: 1 μM • D4476: 2 μM. • Pifithrin alpha [p53 inhibitor]: 5 μM • PD0325901: 1 μM • SB431542: 2 μM • ALK5 Inhibitor II: 2 μM. The culture medium was substituted by a fresh one every 3-4 days and the cells were cultured up to day 14.

[2] = tested on: human dermal fibroblasts (HDFs); experiment: UCP1 protein immunostaining, fluorescence intensity (Example 8); details: induction medium + T3 + Rosiglitazone, D4476, SB431541, ALK5 inhibitor II, FSK 2 μM, PD0325901 1 μM, day 14, FIG. 8A-C
Method: (§1) The next day, the culture supernatant was removed by suction and, as described in the Figure, a normal medium, an adipocyte induction medium, or an adipocyte induction medium added with each compound and the like was added at 500 μL/well. […] The concentrations of the additives are as follows: • T3: 1 nM • Rosiglitazone: 1 μM • […]: 2 μM • SB431541: 2 μM • ALK5 inhibitor II: 2 μM • PD0325901: 1 μM • Forskolin (FSK): 2 μM. The culture medium was substituted by a fresh one every 3-4 days and the cells were cultured up to day 14. […] The cells were photographed at a magnification of 200 with a fluorescence microscope and the fluorescence intensity was measured.

[3] = tested on: human dermal fibroblasts (HDFs); experiment: Oil Red O staining of fibroblasts cultured with compounds (Example 1); details: adipocyte induction medium with T3 1 nM and Rosiglitazone 1 μM, D4476 2 μM, SB431542 2 μM, ALK5 Inhibitor II 2 M, Pifithrin alpha 5 μM, day 14, FIG. 1
Method: The next day, the culture supernatant was removed by suction and, as described in the Figure, a normal medium, an adipocyte induction medium, or an adipocyte induction medium added with the compound and the like was added at 500 μL/well.
The adipocyte induction medium is a 10% FBS-added DMEM+MDI medium (10% FBS-added DMEM supplemented with 0.5 mM isobutylmethylxanthine (IBMX), 0.5 μM dexamethason and 1 μg/mL Insulin).
The concentrations of the additives are as follows: • T3: 1 nM • Rosiglitazone: 1 μM • D4476: 2 μM • Pifithrin alpha [p53 inhibitor]: 5 μM • SB431542: 2 μM • ALK5 Inhibitor II: […].
The culture medium was substituted by a fresh one every 3-4 days and the cells were cultured up to day 14.
After washing 3 times with sterile distilled water, Oil Red O staining solution was added, and the mixture was incubated at room temperature for 15 min. Then, the cells were washed with sterile distilled water and photographed at a magnification of 100 with a phase contrast microscope.

[4] = tested on: human dermal fibroblasts (HDFs); experiment: UCP1 gene mRNA, comparison of four inhibitors at 4-16 μM (Example 15); details: for induction efficiency into brown adipocytes (order): compound at 4, 8, 12 or 16 μM up to Day 9, UCP1 mRNA on day 14, FIG. 15; for UCP1 gene expression (conversion to brown adipocytes): compound at 4, 8, 12 or 16 μM up to Day 9, then without compound Day 9-14, FIG. 15
Method: (Day −1). In the control (Ctrl) group, the culture supernatant of the next day (Day 0) was removed by suction and the cells were cultured in a normal medium up to day 14 while substituting the medium with a fresh one once every other day. In groups other than the control (Ctrl) group, the culture supernatant was removed by suction on day 0, an adipocyte induction medium or an adipocyte induction medium added with any of ALK5 inhibitor II, SB431542, LY2157299 and D4476 at a concentration of 4 μM, 8 μM, 12 μM or 16 μM respectively was added at 1 mL/well.
Thereafter, the cells were cultured in an adipocyte induction medium free of any compound of ALK5 inhibitor II, SB431542, LY215799 and D4476 during Day 9-Day 14.

[5] = tested on: human dermal fibroblasts (HDFs); experiment: CIDEA gene mRNA by real time RT-PCR (Example 4); details: induction medium + T3 + Rosiglitazone, compounds 2 μM, day 14, FIG. 4
Method: The next day, the culture supernatant was removed by suction and, as described in the Figure, a normal medium, an adipocyte induction medium, or an adipocyte induction medium added with each compound and the like was added at 500 μL/well. […] The concentrations of the additives are as follows: • T3: 1 nM • Rosiglitazone: 1 μM • D4476: 2 μM • Pifithrin alpha [p53 inhibitor]: 5 μM • SB431542: 2 μM • ALK5 Inhibitor II: 2 μM. The culture medium was substituted by a fresh one every 3 4 days and the cells were cultured up to day 14.

[6] = tested on: human dermal fibroblasts (HDFs); experiment: BODIPY staining of lipid droplets (Example 7); details: induction medium + T3 + Rosiglitazone, compounds 2 μM, day 14, FIG. 7A, 7B
Method: as §1, with “each low-molecular-weight” for “each”, “II:” for “II: 2 μM • PD0325901: 1 μM • Forskolin (FSK):”

[7] = tested on: human dermal fibroblasts (HDFs); experiment: UCP1 protein immunostaining, comparison of four inhibitors (Example 16); details: ALK5 inhibitor II 4 μM, LY2157299 8 μM; for UCP1 protein expression by immunostaining (induction into brown adipocytes): SB431542 4 μM, D4476 4 μM up to Day 9, day 14, FIG. 16A, 16B
Method: Thereafter, the cells were cultured in an adipocyte induction medium free of any compound of ALK5 inhibitor II, SB431542, LY215799 and D4476 during Day 9-Day 14. On day 14, the medium was removed by suction from each well, and the cells were washed with PBS(−).

| SMILES | mRNA expression of AdipoQ gene (conversion to brown adipocytes) [1] | UCP1 protein expression by immunostaining (conversion to brown adipocytes) [2] | Oil Red O staining [3] | induction efficiency into brown adipocytes (order) [4] | UCP1 gene expression (conversion to brown adipocytes) [4] | mRNA expression of CIDEA gene (conversion to brown adipocytes) [5] | lipid droplets stained with BODIPY (conversion to brown adipocytes) [6] | UCP1 protein expression by immunostaining (induction into brown adipocytes) [7] | strength of induction of UCP1 expression (order) ([7]; immunostaining day 14, FIG. 16) |
| --- | --- | --- | --- | --- | --- | --- | --- | --- | --- |
| Cc1cccc(-c2n[nH]cc2-c2ccc3ncccc3n2)n1 [ALK5 Inhibitor II, 2-(3-(6-Methylpyridin-2-yl)-1H-pyrazol-4-yl)-1,5-naphthyridine] | converted to brown adipocytes expressing mRNA of AdipoQ gene | converted to brown adipocytes expressing UCP1 protein | Remarkable Oil Red O staining | most strongly induced into brown adipocytes | converted to brown adipocytes strongly expressing UCP1 gene | converted to brown adipocytes expressing mRNA of CIDEA gene | converted to brown adipocytes having lipid droplets stained with BODIPY | induced into brown adipocytes expressing UCP1 protein | most strongly induced |
| NC(=O)c1ccc(-c2nc(-c3ccc4c(c3)OCCO4)c(-c3ccccn3)[nH]2)cc1 [D4476, 4-[4-(2,3-dihydro-1,4-benzodioxin-6-yl)-5-(2-pyridlnyl-)1H-imidazol-2-yl]-benzamide] | converted to brown adipocytes expressing mRNA of AdipoQ gene | converted to brown adipocytes expressing UCP1 protein | Remarkable Oil Red O staining | ALK5 inhibitor II>LY2157299>SB431541>D4476 | converted to brown adipocytes strongly expressing UCP1 gene | converted to brown adipocytes expressing mRNA of CIDEA gene | converted to brown adipocytes having lipid droplets stained with BODIPY | induced into brown adipocytes expressing UCP1 protein | – |
